In patent US8975249B2, “Heterocyclic compounds and uses thereof” (Celgene Avilomics Research, Inc., priority 2010, dated 2015):
pEC50, pIC50: −log10 of the molar value.

Key:
[1] = tested on: HCC827 cells (EGFR delE746-A750); assay: Cell proliferation (CellTiter Glo), HCC827 cells; conditions: proliferation GI50 WT EGFR / HCC827
Description: (§7) Cells were plated in Growth Media supplemented with 5% FBS and 1% P/S at a density of 3,000 cells per well in 96 well tissue culture plates (Corning). […] Growth inhibition (GI50) values were determined by Graph Pad Prism.

[2] = target: WT EGFR (A431 cells) (Homo sapiens (Human), UniProt P00533); assay: Phospho-EGFR signaling immunoblot in A431 cells (WT EGFR); format: cell-based; conditions: 1 hr treatment, EGF stimulated, phospho-EGFR (Y1068)
Description: (§1) A431 human epidermoid carcinoma, H1975 human NSCLC and HCC827 human NSCLC adenocarcinoma cells were obtained from the American Type Culture Center (Manassas, Va.). A431 cells were grown in DMEM (Invitrogen, Carlsbad, Calif.) supplemented with 10% FBS (HyClone, South Logan, Utah) and 1% Penicillin-Streptomycin (P/S, Lonza, Walkersville, Md.).
(§2) All primary antibodies were obtained from Cell Signaling (Danvers, Mass.) and used at 1:1000. Secondary antibodies were used at 1:10,000. Goat anti-mouse IgG IRDye 800CW antibody was obtained from LiCor Biosciences (Lincoln, Nebr.) and goat anti-rabbit IgG Alexa Fluor 680 was obtained from Invitrogen.
(§3) Cells were grown in 12-well plates (Corning, Coring, N.Y.) to 90% confluence and then incubated in low-serum (0.1% FBS) media for 16-18 hr. […] A431 cells were then stimulated with 50 ng/ml EGF (Peprotech, Rocky Hill, N.J.) for 15 min. After treatment, cell monolayers were washed with cold PBS (Invitrogen) and immediately lysed by scrapping into 60 uL cold Cell Extraction Buffer (Invitrogen) supplemented with Complete Protease inhibitors (Roche, Indianapolis, Ind.) and PhosphoSTOP (Roche) phosphatase inhibitors.
(§4) Phospho-protein signals were quantitated using Odyssey Infrared Imaging (Li-Cor Biosciences).
(§5) To assess phosphor-EGFR signaling, blots were probed with rabbit anti-Phospho-EGFR (Y1068) and mouse total anti-EGFR antibodies. Phospho-EGFR signal was normalized to total EGFR expression for each sample. […] Normalized data was fitted using a sigmoidal curve analysis program (Graph Pad Prism version 5) with variable Hill slope to determine the EC50 values.
(§6) The compound numbers recited in Table 4 correspond to the compound numbers in Table 1.

[3] = tested on: H1975 cells (EGFR L858R/T790M); assay: Cell proliferation (CellTiter Glo), H1975 cells; conditions: proliferation GI50 WT EGFR / H1975
Description: as §7

[4] = target: EGFR (WT) (Homo sapiens (Human), UniProt P00533); assay: Omnia biochemical assay, EGFR-WT active enzyme; conditions: [EGFR-WT]=5 nM, [ATP]=15 uM, 30 min pre-incubation
Description: Kinase reactions were started with the addition of 45 μL of the ATP/Tyr-Sox peptide substrate mix and monitored every 71 seconds for 60 minutes at λex360/λem485 in a Synergy^4 plate reader from BioTek (Winooski, Vt.).
The compound numbers correspond to the compound numbers in Table 1.

[5] = target: EGFR double mutation L858R/T790M (H1975 cells) (Homo sapiens (Human), UniProt P00533, L858R/T790M); assay: Phospho-EGFR signaling immunoblot in H1975 cells; format: cell-based; conditions: for pEC50: H1975 cells, 1 hr treatment, phospho-EGFR (Y1068); for Ratio WT/mutant (H1975): signaling EC50 WT EGFR / H1975
Description: as §1, §2, §3, §4, §5, §6

SMILES | Ratio WT/mutant (HCC827) [1] | pEC50 [2] | Ratio WT/mutant (H1975) [3] | pIC50 [4] | pEC50 [5] | Ratio WT/mutant (H1975) [5]
C=CC(=O)Nc1cccc(Nc2nc(Nc3ccc(N4CCN(C(=O)CO)CC4)cc3OC)ncc2C(F)(F)F)c1 [Compound I-6, N-(3-(2-(4-(4-(2-hydroxyacetyl)piperazin-1-yl)-2-methoxyphenylamino)-5-(trifluoromethyl)pyrimidin-4-ylamino)phenyl)acrylamide] | >40 | < 6.00 | >10 | 8.00 to 9.00 | 7.00 to 8.00 | >20
C=CC(=O)Nc1cccc(Nc2nc(Nc3ccc(N4CCCN(C(C)=O)CC4)cc3OC)ncc2C(F)(F)F)c1 [Compound I-7, N-(3-(2-(4-(4-acetyl-1,4-diazepan-1-yl)-2-methoxyphenylamino)-5-(trifluoromethyl)pyrimidin-4-ylamino)phenyl)acrylamide] | >10 | < 6.00 | >1 | 7.52 to 8.00 | 6.30 to 7.00 | >5
C=CC(=O)Nc1cccc(Nc2nc(Nc3ccc(N4CCN(C(C)=O)CC4)cc3OC)ncc2Cl)c1 [Compound I-8, N-(3-(2-(4-(4-acetylpiperazin-1-yl)-2-methoxyphenylamino)-5-chloropyrimidin-4-ylamino)phenyl)acrylamide] | >20 | < 6.00 | >1 | 7.52 to 8.00 | < 6.00 | >1
C=CC(=O)Nc1cccc(Oc2nc(Nc3ccc(N4CCN(C(=O)CO)CC4)cc3OC)ncc2C(F)(F)F)c1 [Compound I-11, N-(3-(2-(4-(4-(2-hydroxyacetyl)piperazin-1-yl)-2-methoxyphenylamino)-5-(trifluoromethyl)pyrimidin-4-yloxy)phenyl)acrylamide] | >45 | < 6.00 | >5 | 7.52 to 8.00 | 6.30 to 7.00 | >15
C=CC(=O)Nc1cccc(Nc2nc(Nc3ccc(N4CCN(C(=O)CO)CC4)cc3OC)ncc2Cl)c1 [Compound I-12, N-(3-(5-chloro-2-(4-(4-(2-hydroxyacetyl)piperazin-1-yl)-2-methoxyphenylamino)pyrimidin-4-ylamino)phenyl)acrylamide] | >30 | < 6.00 | >1 | 7.52 to 8.00 | < 6.00 | >1
C=CC(=O)Nc1cccc(Oc2nc(Nc3ccc(N4CCN(C(=O)NC)CC4)cc3OC)ncc2C(F)(F)F)c1 [Compound I-21, 4-(4-(4-(3-acrylamidophenoxy)-5-(trifluoromethyl)pyrimidin-2-ylamino)-3-methoxyphenyl)-N-methylpiperazine-1-carboxamide] | >20 | < 6.00 | >1 | 7.52 to 8.00 | 6.30 to 7.00 | >5
C=CC(=O)Nc1cccc(Oc2nc(Nc3ccc(N4CCN(S(C)(=O)=O)CC4)cc3OC)ncc2C(F)(F)F)c1 [Compound I-22, N-(3-(2-(2-methoxy-4-(4-(methylsulfonyl)piperazin-1-yl)phenylamino)-5-(trifluoromethyl)pyrimidin-4-yloxy)phenyl)acrylamide] | >35 | < 6.00 | >10 | 7.00 to 7.52 | 6.30 to 7.00 | >35
C=CC(=O)Nc1cccc(Oc2nc(Nc3ccc(N4CCN(S(C)(=O)=O)CC4)cc3OC)ncc2Cl)c1 [Compound I-26, N-(3-(5-chloro-2-(2-methoxy-4-(4-(methylsulfonyl)piperazin-1-yl)phenylamino)pyrimidin-4-yloxy)phenyl)acrylamide] | >35 | < 6.00 | >1 | 7.52 to 8.00 | 6.30 to 7.00 | >40
C=CC(=O)Nc1cccc(Nc2nc(Nc3ccc(N4CCN(C(C)=O)CC4)cc3OC(F)(F)F)ncc2C(F)(F)F)c1 [Compound I-33, N-(3-(2-(4-(4-acetylpiperazin-1-yl)-2-(trifluoromethoxy)phenylamino)-5-(trifluoromethyl)pyrimidin-4-ylamino)phenyl)acrylamide] | >15 | < 6.00 | >30 | 8.00 to 9.00 | 7.00 to 8.00 | >50
C=CC(=O)Nc1cccc(Nc2nc(Nc3ccc(N4CCN(C(=O)C(C)(C)C)CC4)cc3OC)ncc2C(F)(F)F)c1 [Compound I-34, N-(3-(2-(2-methoxy-4-(4-pivaloylpiperazin-1-yl)phenylamino)-5-(trifluoromethyl)pyrimidin-4-ylamino)phenyl)acrylamide] | >50 | < 6.00 | >5 | 7.00 to 7.52 | 6.30 to 7.00 | >35
C=CC(=O)Nc1cccc(Nc2nc(Nc3ccc(N4CCN(C(=O)CC)CC4)cc3OC)ncc2C(F)(F)F)c1 [Compound I-35, N-(3-(2-(2-methoxy-4-(4-propionylpiperazin-1-yl)phenylamino)-5-(trifluoromethyl)pyrimidin-4-ylamino)phenyl)acrylamide] | >25 | < 6.00 | >10 | 8.00 to 9.00 | > 8.00 | –
C=CC(=O)Nc1cccc(Nc2nc(Nc3ccc(N4CCN(C(C)=O)CC4)cc3OC)ncc2Br)c1 [Compound I-40, N-(3-(2-(4-(4-acetylpiperazin-1-yl)-2-methoxyphenylamino)-5-bromopyrimidin-4-ylamino)phenyl)acrylamide] | >10 | < 6.00 | >5 | 7.52 to 8.00 | < 6.00 | >1
C=CC(=O)Nc1cccc(Nc2nc(Nc3ccc(N4CCN(S(C)(=O)=O)CC4)cc3OC)ncc2Cl)c1 [Compound I-41, N-(3-(5-chloro-2-(2-methoxy-4-(4-(methylsulfonyl)piperazin-1-yl)phenylamino)pyrimidin-4-ylamino)phenyl)acrylamide] | >20 | < 6.00 | >1 | 7.00 to 7.52 | < 6.00 | >1
C=CC(=O)Nc1cccc(Nc2nc(Nc3ccc(N4CCCN(C(=O)OC(C)(C)C)CC4)cc3OC)ncc2C(F)(F)F)c1 [Compound I-44, tert-butyl 4-(4-(4-(3-acrylamidophenylamino)-5-(trifluoromethyl)pyrimidin-2-ylamino)-3-methoxyphenyl)-1,4-diazepane-1-carboxylate] | >5 | < 6.00 | >5 | 6.00 to 6.52 | 6.00 to 6.30 | >5
C=CC(=O)Nc1cccc(Nc2nc(Nc3ccc(N4CCN(C(C)=O)[C@H](C(=O)OC)C4)cc3OC)ncc2C(F)(F)F)c1 [Compound I-48, (S)-methyl 1-acetyl-4-(4-(4-(3-acrylamidophenylamino)-5-(trifluoromethyl)pyrimidin-2-ylamino)-3-methoxyphenyl)piperazine-2-carboxylate] | >15 | < 6.00 | >10 | 7.52 to 8.00 | 7.00 to 8.00 | >50
C=CC(=O)Nc1cccc(Nc2nc(Nc3ccc(N4CCS(=O)(=O)CC4)cc3OC)ncc2C(F)(F)F)c1 [Compound I-49, N-(3-(2-(2-methoxy-4,4-dioxo-4-thiomorpholinophenylamino)-5-(trifluoromethyl)pyrimidin-4-ylamino)phenyl)acrylamide] | >25 | < 6.00 | >10 | 8.00 to 9.00 | 7.00 to 8.00 | >20
